# Test results: ChEMBL document CHEMBL4842343, “1,10-Seco-Eudesmane sesquiterpenoids as a new type of anti-neuroinflammatory agents by suppressing TLR4/NF-κB/MAPK pathways” (Eur J Med Chem, 2021)
# pEC50: −log10 of the molar value. The source made the active and inactive calls. The rule behind the calls is not given here.
# Legend:
# [1] = tested on: BV-2; assay: Inhibition of TNF-alpha production in mouse BV-2 cells at 10 uM measured after 24 hrs by ELISA; type: functional, cell-based
# [2] = tested on: BV-2; assay: Inhibition of COX-2 expression in mouse BV-2 cells at 10 uM measured after 24 hrs by western blot analysis; type: functional, cell-based
# [3] = tested on: BV-2; assay: Inhibition of TLR4/NF-kappaB signalling pathway in LPS- stimulated mouse BV-2 cells assessed as reduction in MyD88 expression at 0.3 to 10 uM measured after 24 hrs by western blot analysis; type: cell-based; conditions: dose 0.3-10 µM
# [4] = tested on: BV-2; assay: Inhibition of TLR4/NF-kappaB signalling pathway in mouse BV-2 cells assessed as increase in CD14 cell surface expression at 10 uM pretreated for 1 hr and measured after 24 hrs by flow cytometry analysis (Rvb= 3.8%); type: cell-based; set-up: scale not given: the % may be the effect or the level left; conditions: time 25.0 hrs
# [5] = tested on: BV-2; assay: Antineuroinflammatory activity in LPS- stimulated mouse BV-2 cells assessed as upregulation of HO-1 expression measured after 24 hrs by immunoblotting analysis; type: functional, cell-based; conditions: dose 1-10 µM
# [6] = tested on: BV-2; assay: Inhibition of COX-1 expression in mouse BV-2 cells at 10 uM measured after 24 hrs by western blot analysis; type: functional, cell-based
# [7] = target: MAP kinase p38 (Mus musculus) (UniProt P47811+O08911+Q9WUI1+Q9Z1B7); assay: Inhibition of p38 MAPK phosphorylation in LPS-stimulated mouse BV-2 cells measured after 2 hrs by western blot analysis; type: cell-based; conditions: dose 0.3-10 µM
# [8] = tested on: BV-2; assay: Antineuroinflammatory activity in LPS- stimulated mouse BV-2 cells assessed as conversion of microglia from M1 to M2 phenotype macrophages by measuring IL-10 production at 1 uM measured after 24 hrs by ELISA; type: functional, cell-based
# [9] = tested on: BV-2; assay: Inhibition of COX-2 expression in LPS-stimulated mouse BV-2 cells measured after 24 hrs by western blot analysis; type: functional, cell-based
# [10] = tested on: BV-2; assay: Inhibition of ERK phosphorylation in LPS-stimulated mouse BV-2 cells at 0.3 to 10 uM measured after 2 hrs by western blot analysis; type: cell-based; conditions: dose 0.3-10 µM
# [11] = tested on: BV-2; assay: Antineuroinflammatory activity in LPS- stimulated mouse BV-2 cells assessed as conversion of microglia from M1 to M2 phenotype macrophages by measuring arginase-1 level at 10 uM measured after 24 hrs by ELISA; type: functional, cell-based
# [12] = Potency index, ratio of OABC EC50 to test compound EC50 for inhibition of LPS-induced NO production in mouse BV-2 cells incubated for 24 hrs by Griess reagent based assay; type: functional
# [13] = tested on: BV-2; assay: Inhibition of PGE2 production in LPS- stimulated mouse BV-2 cells measured after 24 hrs by ELISA; type: functional, cell-based; conditions: dose 1-10 µM
# [14] = tested on: BV-2; assay: Cytotoxicity against LPS-stimulated mouse BV-2 cells assessed as reduction in cell viability at 10 uM measured after 24 hrs by MTT assay relative to control; type: cell-based; conditions: bv-2, 24 h
# [15] = tested on: BV-2; assay: Inhibition of NF-kappaB p65 translocation in LPS-stimulated mouse BV-2 cells assessed as distribution of NF-kappaB p65 in nucleus and cytoplasm at 3 uM pretreated for 1 hr followed by LPS stimulation measured after 24 hrs by DAPI staining based immunofluorescence assay; type: cell-based; conditions: time 25.0 hrs
# [16] = Inhibition of LPS-induced NO production in mouse BV-2 cells incubated for 24 hrs by Griess reagent based assay; type: functional, cell-based; conditions: Mus musculus, BV-2, 24 h; read-out: EC50
# [17] = tested on: BV-2; assay: Antineuroinflammatory activity in LPS- stimulated mouse BV-2 cells assessed as fold increase in HO-1 expression at 10 uM measured after 24 hrs by immunoblotting analysis relative to control; type: functional
# [18] = tested on: BV-2; assay: Inhibition of TLR4/NF-kappaB signalling pathway in LPS- stimulated mouse BV-2 cells assessed as reduction in IRAK1 expression measured after 24 hrs by western blot analysis; type: cell-based; conditions: dose 0.3-10 µM
# [19] = tested on: BV-2; assay: Potency indes, ratio of OABC to test compound for inhibition of COX-2 expression in LPS-stimulated mouse BV-2 cells at 10 uM measured after 24 hrs by western blot analysis; type: functional
# [20] = tested on: BV-2; assay: Inhibition of COX-1 expression in LPS-stimulated mouse BV-2 cells at 1 to 10 uM measured after 24 hrs by western blot analysis; type: functional, cell-based; conditions: dose 1-10 µM
# [21] = Effective permeability of the compound in PBS/EtOH buffer (9:1) at […] after 10 hrs by HPLC-UV based PAMPA-BBB assay; type: ADME; conditions: read-out: permeability
# [22] = tested on: BV-2; assay: Inhibition of PGE2 production in mouse BV-2 cells at 10 uM measured after 24 hrs by ELISA; type: functional, cell-based
# [23] = tested on: BV-2; assay: Inhibition of TNF-alpha production in LPS stimulated mouse BV-2 cells measured after 24 hrs by ELISA; type: functional, cell-based; conditions: dose 1-10 µM
# [24] = Potency indes, ratio of OABC to test compound for Inhibition of iNOS expression in LPS-stimulated mouse BV-2 cells at 10 uM measured after 24 hrs by western blot analysis; type: functional
# [25] = tested on: BV-2; assay: Inhibition of iNOS expression in LPS-stimulated mouse BV-2 cells measured after 24 hrs by western blot analysis; type: functional, cell-based; conditions: dose 1-10 µM
# [26] = Inhibition of iNOS expression in mouse BV-2 cells at 10 uM measured after 24 hrs by western blot analysis relative to control; type: functional
# [27] = Inhibition of iNOS expression in LPS-stimulated mouse BV-2 cells at 10 uM measured after 24 hrs by western blot analysis relative to control; type: functional
# [28] = tested on: BV-2; assay: Inhibition of TLR4/NF-kappaB signalling pathway in LPS-stimulated mouse BV-2 cells assessed as decrease in CD14 cell surface expression at 10 uM pretreated for 1 hr followed by LPS stimulation and measured after 24 hrs by […] (reference value: 27.2%); type: cell-based; set-up: scale not given: the % may be the effect or the level left; conditions: time 25.0 hrs
smiles,measurement,setting,value
C=C1C(=O)O[C@@H]2CC(CBr)=C([C@@H](C)CCCOC(C)=O)[C@@H](OC(C)=O)[C@H]12,inhibition,[1],inactive
same,inhibition,[2],Active
same,inhibition,[3],inactive
same,Activity,[4],10.6%
same,Activity,[5],Dose-Dependent Effect
same,inhibition,[6],inactive
same,Activity,[7],Dose-Dependent Effect
same,Activity,[8],Active
same,inhibition,[9],Dose-Dependent Effect
same,inhibition,[10],inactive
same,Activity,[11],Active
same,Ratio EC50,[12],6
same,inhibition,[13],Dose-Dependent Effect
same,Activity,[14],90.6%
same,inhibition,[15],Active
same,pEC50,[16],6.15
same,fold change (FC),[17],2.8
same,inhibition,[18],Dose-Dependent Effect
same,fold change (FC),[19],4
same,inhibition,[20],inactive
same,Papp at 10 h,[21],6.5 ×10⁻⁶ cm/s
same,inhibition,[22],inactive
same,inhibition,[23],Dose-Dependent Effect
same,fold change (FC),[24],4
same,inhibition,[25],Dose-Dependent Effect
same,inhibition at 10 µM,[26],12.2%
same,inhibition at 10 µM,[27],11.2%
same,Activity,[28],9.9%
